In PMC5920559 (Journal of medicinal chemistry, 2017):
Converted amounts (≈) assume the structure as drawn. Where two headings read alike, the source gives them in different places. Peptide text beside a SMILES is read from it. * marks the point of attachment. Cbz = O=C(OCc1ccccc1)*

Experiments:
[1] = system: LC3-I/II and p62 in HEK293 cells; experiment: autophagy markers immunoblot; assay type: cell-based; conditions: 8 h
SMN-luc fusion = SMN-luc fusion (UniProt P08659+Q16637); experiment: SMN-luc protein stability with cycloheximide; assay type: cell-based; conditions: with cycloheximide 10 µM, compound 10 µM
SMN-luciferase mRNA [2] = conditions: cited from earlier work
[3] = molecular target: endogenous SMN protein in HEK293 cells (Homo sapiens, UniProt Q16637); experiment: pulse-chase SMN protein half-life; assay type: cell-based; conditions: 10 µM
endogenous SMN protein in HEK293 cells, sequence (Q16637 whole entry): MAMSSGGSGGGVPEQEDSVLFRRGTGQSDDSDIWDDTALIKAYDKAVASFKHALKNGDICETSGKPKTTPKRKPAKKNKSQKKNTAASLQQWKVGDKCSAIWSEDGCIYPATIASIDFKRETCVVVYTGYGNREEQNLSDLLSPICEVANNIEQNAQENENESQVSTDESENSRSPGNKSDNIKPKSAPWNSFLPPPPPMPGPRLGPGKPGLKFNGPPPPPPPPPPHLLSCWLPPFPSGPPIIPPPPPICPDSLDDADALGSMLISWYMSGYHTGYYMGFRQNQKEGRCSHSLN

[4] = system: human SMN protein in 3813T fibroblasts; conditions: cited from earlier work
[5] = system: SMN2-luc reporter cell line; experiment: SMN2-luciferase; assay type: cell-based; conditions: 24 h
severe SMA mice (SMNΔ7) = severe SMA mice (SMNΔ7) printed for 5; cited from earlier work
mouse pharmacokinetics = assay type: in vivo; conditions: for Cmax: plasma, plasma Cmax
[6] = system: renilla luciferase protein; experiment: Renilla-luc protein stability with cycloheximide; conditions: with cycloheximide 10 µM, compound 10 µM
SV40 reporter cells = experiment: SV40 promoter luciferase counterscreen; assay type: cell-based
[7] = plasma protein binding, mouse plasma; assay type: in vitro ADME
recombinant luciferase = recombinant luciferase (Photinus pyralis, UniProt P08659); experiment: recombinant luciferase activity; assay type: biochemical
recombinant luciferase, sequence (P08659 whole entry): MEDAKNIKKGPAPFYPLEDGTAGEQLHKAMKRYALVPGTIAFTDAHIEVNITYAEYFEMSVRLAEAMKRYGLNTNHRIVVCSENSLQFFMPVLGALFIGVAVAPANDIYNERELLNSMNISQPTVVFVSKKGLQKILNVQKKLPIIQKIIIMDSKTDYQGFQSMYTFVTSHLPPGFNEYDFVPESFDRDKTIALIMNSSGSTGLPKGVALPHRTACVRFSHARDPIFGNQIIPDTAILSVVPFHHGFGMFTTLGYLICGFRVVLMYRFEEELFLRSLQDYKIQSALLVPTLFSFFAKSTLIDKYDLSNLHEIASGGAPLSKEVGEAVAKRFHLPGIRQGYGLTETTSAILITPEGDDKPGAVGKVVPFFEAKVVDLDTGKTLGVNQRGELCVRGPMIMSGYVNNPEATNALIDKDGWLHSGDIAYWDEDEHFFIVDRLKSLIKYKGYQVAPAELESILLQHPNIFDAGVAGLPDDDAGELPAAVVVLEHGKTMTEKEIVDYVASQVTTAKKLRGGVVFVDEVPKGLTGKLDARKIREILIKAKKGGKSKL

[8] = system: 64 target broad panel (e.g., GPCRs and ion channels); experiment: 64 target broad panel screen; conditions: 10 µM
hERG = hERG (Homo sapiens, UniProt Q12809); experiment: hERG safety profiling; conditions: 10 µM
hERG, sequence (Q12809 whole entry): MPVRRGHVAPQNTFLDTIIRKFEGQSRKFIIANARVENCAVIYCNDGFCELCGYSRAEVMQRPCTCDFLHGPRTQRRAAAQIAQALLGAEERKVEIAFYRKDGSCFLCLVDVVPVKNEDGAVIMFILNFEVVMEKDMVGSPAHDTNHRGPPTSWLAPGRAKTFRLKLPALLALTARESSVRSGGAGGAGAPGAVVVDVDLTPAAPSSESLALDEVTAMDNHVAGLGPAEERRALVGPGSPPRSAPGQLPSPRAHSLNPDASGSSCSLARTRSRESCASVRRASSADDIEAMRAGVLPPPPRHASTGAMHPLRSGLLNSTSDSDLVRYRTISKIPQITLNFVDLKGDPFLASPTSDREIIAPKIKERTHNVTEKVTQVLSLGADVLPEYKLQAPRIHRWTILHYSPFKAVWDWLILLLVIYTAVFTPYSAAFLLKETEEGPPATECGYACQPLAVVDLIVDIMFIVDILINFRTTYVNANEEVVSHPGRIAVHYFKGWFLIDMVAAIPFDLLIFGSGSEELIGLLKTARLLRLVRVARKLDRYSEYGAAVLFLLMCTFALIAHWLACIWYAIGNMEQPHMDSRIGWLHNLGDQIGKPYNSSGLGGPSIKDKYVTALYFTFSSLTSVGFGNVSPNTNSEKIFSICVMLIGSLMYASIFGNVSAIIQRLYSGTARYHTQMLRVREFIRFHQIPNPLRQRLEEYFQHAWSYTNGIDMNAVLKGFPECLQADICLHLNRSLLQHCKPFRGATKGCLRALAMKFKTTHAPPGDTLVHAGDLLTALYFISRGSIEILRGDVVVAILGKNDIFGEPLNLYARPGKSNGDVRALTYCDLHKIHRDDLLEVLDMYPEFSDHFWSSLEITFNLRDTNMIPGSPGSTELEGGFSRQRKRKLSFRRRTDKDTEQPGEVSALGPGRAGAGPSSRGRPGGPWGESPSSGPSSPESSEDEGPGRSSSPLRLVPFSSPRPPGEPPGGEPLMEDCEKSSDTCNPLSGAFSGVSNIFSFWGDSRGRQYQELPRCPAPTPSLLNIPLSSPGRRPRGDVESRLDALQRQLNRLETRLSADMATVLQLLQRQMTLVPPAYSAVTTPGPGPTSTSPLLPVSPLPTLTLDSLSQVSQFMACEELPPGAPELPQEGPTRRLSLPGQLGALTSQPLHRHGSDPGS

SMN2 reporter cells = experiment: constant ratio combination experiment in SMN2 reporter cells; assay type: cell-based
[9] = system: MBP-HPV-16 E6 mediated degradation of p53; experiment: HPV16 E6 mediated p53 in vitro degradation assay; assay type: biochemical; conditions: preincubation of rabbit reticulocyte lysates, 30 min
acid stability in HCl = assay type: physicochemical; conditions: 0.1 and 1 N HCL, 37 °C, each time point 1, 2, 4, 6, 24 h, LCMS
[10] = kinetic solubility at pH 7.4; assay type: physicochemical; conditions: aqueous medium (buffer not named)
[11] = system: p53 and p21-Cip1 in HEK293 cells; experiment: levels of short-lived proteins p53 and p21; assay type: cell-based; conditions: alone or after cycloheximide
SMN-luciferase mRNA [12] = experiment: qRT-PCR of SMN-luciferase mRNA; assay type: cell-based; conditions: 1, 10 µM, 24 h
58 kinase panel = experiment: 58 kinase panel; assay type: biochemical; conditions: 10 µM
SH5Y5Y cells = experiment: cell viability; assay type: cell-based; conditions: up to 100× its EC50, 48 h
[13] = plasma protein binding, human plasma; assay type: in vitro ADME
[14] = system: polyubiquitinated proteins in HEK293 cells; experiment: polyubiquitinated proteins immunoblot; assay type: cell-based; conditions: for effect on basal level of polyubiquitinated proteins: 1 and 10 µM

Structure (SMILES): CCN(CC)CCCC(C)Nc1ccnc2cc(Cl)ccc12 (stereo not drawn) [Chloroquine, reference compound]
- effect on p62 and LC-3 II protein levels [1]: increased

Structure (SMILES): CC(C)c1cc(C(=O)Nc2ccc(F)c(Cl)c2)no1 [Compound 4, N-(3-Chloro-4-fluorophenyl)-5-isopropylisoxazole-3-carboxamide]
- stabilization of SMN-luc fusion (SMN-luc fusion): stabilized
- effect on SMN mRNA expression and exon 7 inclusion (SMN-luciferase mRNA [2]): did not alter SMN mRNA expression or exon 7 inclusion
- effect on SMN protein half-life [3]: increased
- SMN expression in SMA-derived fibroblast [4]: promoted increases
- EC50 [5]: 1800 nM
- in vivo activity (severe SMA mice (SMNΔ7)): inactive

Structure (SMILES): CC(C)c1cc(C(=O)Nc2ccccn2)no1 [Compound 4m, 5-Isopropyl-N-(pyridin-2-yl)isoxazole-3-carboxamide]
- brain Cmax (mouse pharmacokinetics; 20 mpk ip, 20 mg/kg): 6 ng/mL
- plasma Cmax (mouse pharmacokinetics; 20 mpk ip, 20 mg/kg): 3 ng/mL
- plasma and brain levels after 30 min (mouse pharmacokinetics; ip 20 mg/kg): below the levels of detection

Structure (SMILES): COc1cc2c(c(OC)c1OC)C(c1cc(Br)ccc1F)CC(=O)N2 (stereo not drawn) [Compound 5, reference compound]
- stabilization of SMN-luc fusion (SMN-luc fusion): Neither
- in vivo activity (severe SMA mice (SMNΔ7)): increases SMN protein and the survival
- stabilization of renilla luciferase protein [6]: Neither

Structure (SMILES): O=C(Nc1ncc(C2CCC2)s1)c1ccc(F)c(Cl)c1 [Compound 26, 3-Chloro-N-(5-cyclobutylthiazol-2-yl)-4-fluorobenzamide]
- Emax ([5]; read-out: % Activation): 100 ± 16%

Structure (SMILES): O=C(Nc1ncc(C2(O)CCC2)s1)c1ccc(F)c(Cl)c1 [Compound 27, 3-Chloro-4-fluoro-N-(5-(1-hydroxycyclobutyl)thiazol-2-yl)-benzamide]
- effect on luc levels expressed from a minimal SV40 promoter (SV40 reporter cells): minimal effects
- free fraction in mouse plasma [7]: 4.7 % free
- effect on recombinant luciferase protein in vitro (recombinant luciferase): minimal effects
- inhibition of 64 other targets [8]: < 50%
- inhibition of hERG activity (hERG): < 50%
- stabilization of SMN-luc fusion (SMN-luc fusion): stabilized
- Cmax (mouse pharmacokinetics; ip, 20 mg/kg, ip 20 mg/kg): 23 µM
- Cmax (mouse pharmacokinetics; po, 20 mg/kg, adult mice, orally 20 mg/kg): 0.9 µM
- SMN2-luc level on combined exposure with 4 (SMN2 reporter cells; in combination with 4, 24 h): did not result in additive or above additive levels
- SMN2-luc level on combined exposure with 5 (SMN2 reporter cells; in combination with transcriptional activator 5, 24 h): an activation above the theoretical additive was observed
- inhibition of MBP-HPV-16 E6 mediated degradation of p53 [9]: no inhibition
- degradation in acid (acid stability in HCl): less than 5%
- effect on p62 and LC-3 II protein levels [1]: did not alter
- solubility [10]: ~10 µg/mL (≈ 30.6 µM)
- effect on cellular levels of p53 and p21-Cip1 [11]: did not alter
- effect on SMN mRNA expression and exon 7 inclusion (SMN-luciferase mRNA [12]): did not alter SMN mRNA expression or exon 7 inclusion
- inhibition in 58 kinase panel (58 kinase panel): < 50%
- effect on viability of SH5Y5Y cells (SH5Y5Y cells): no effect
- free fraction in human plasma [13]: 3.5 % free
- effect on basal level of polyubiquitinated proteins [14]: no effect

Structure (SMILES): CC(C)C[C@@H](C=O)NC(=O)[C@H](CC(C)C)NC(=O)[C@H](CC(C)C)NC(=O)OCc1ccccc1 [MG-132] (Cbz-Leu-Leu-Leu-aldehyde)
- effect on SMN protein half-life [3]: increased
- effect on basal level of polyubiquitinated proteins [14]: increased
- inhibition of cycloheximide-induced reduction of polyubiquitinated proteins ([14]; 2 h pretreatment then cycloheximide 10 µM): inhibited

Structure (SMILES): O=C(CCCCCCC(=O)Nc1ccccc1)NO [SAHA, suberoylanilide hydroxamic acid, reference compound]
- stabilization of SMN-luc fusion (SMN-luc fusion): Neither
- stabilization of renilla luciferase protein [6]: Neither
